According to the supplement of paper PMC8960247:
Where a name gives a salt, the structure may show the parent alone. ± gives the standard error.

Columns and labels:
UMB1949 (TSC2-deficient) = experiment: relative viability vs DMSO (fraction); higher = less cytotoxic; conditions: serum: 0.1% FBS, 72 h;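 also: renal angiomyolipoma cell lines screened in 384-well plates, viability normalized per plate to DMSO-treated cells, each plate carrying 50 nM rapamycin and 1 µM staurosporine controls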
621-102 (TSC2-deficient) [1] = experiment: as above; conditions: serum: 0.1% FBS, 72 h
621-103 (TSC2-rescued) = experiment: relative viability vs DMSO; higher = less cytotoxic; conditions: serum: 10% FBS, 72 h
621-102 (TSC2-deficient) [2] = experiment: as above; conditions: serum: 10% FBS, 72 h

| SMILES | relative viability (UMB1949 (TSC2-deficient); 0.0128 nM) | relative viability (UMB1949 (TSC2-deficient); 0.064 nM) | relative viability (UMB1949 (TSC2-deficient); 0.32 nM) | relative viability (UMB1949 (TSC2-deficient); 1.6 nM) | relative viability (UMB1949 (TSC2-deficient); 8 nM) | relative viability (UMB1949 (TSC2-deficient); 40 nM) | relative viability (UMB1949 (TSC2-deficient); 200 nM) | relative viability (UMB1949 (TSC2-deficient); 1000 nM) | relative viability (UMB1949 (TSC2-deficient); 5000 nM) | relative viability (621-102 (TSC2-deficient) [1]; 0.0128 nM) | relative viability (621-102 (TSC2-deficient) [1]; 0.064 nM) | relative viability (621-102 (TSC2-deficient) [1]; 0.32 nM) | relative viability (621-102 (TSC2-deficient) [1]; 1.6 nM) | relative viability (621-102 (TSC2-deficient) [1]; 8 nM) | relative viability (621-102 (TSC2-deficient) [1]; 40 nM) | relative viability (621-102 (TSC2-deficient) [1]; 200 nM) | relative viability (621-102 (TSC2-deficient) [1]; 1000 nM) | relative viability (621-102 (TSC2-deficient) [1]; 5000 nM) | relative viability (621-103 (TSC2-rescued); 0.0001 µM) | relative viability (621-103 (TSC2-rescued); 0.001 µM) | relative viability (621-103 (TSC2-rescued); 0.01 µM) | relative viability (621-103 (TSC2-rescued); 0.1 µM) | relative viability (621-103 (TSC2-rescued); 1 µM) | relative viability (621-103 (TSC2-rescued); 10 µM) | relative viability (621-102 (TSC2-deficient) [2]; 0.0001 µM) | relative viability (621-102 (TSC2-deficient) [2]; 0.001 µM) | relative viability (621-102 (TSC2-deficient) [2]; 0.01 µM) | relative viability (621-102 (TSC2-deficient) [2]; 0.1 µM) | relative viability (621-102 (TSC2-deficient) [2]; 1 µM) | relative viability (621-102 (TSC2-deficient) [2]; 10 µM) |
| --- | --- | --- | --- | --- | --- | --- | --- | --- | --- | --- | --- | --- | --- | --- | --- | --- | --- | --- | --- | --- | --- | --- | --- | --- | --- | --- | --- | --- | --- | --- |
| c1ccc2c(-c3cnn4cc(-c5ccc(N6CCNCC6)cc5)cnc34)ccnc2c1 | 1.1 | 1.14 | 1.15 | 1.08 | 1.07 | 1.1 | 0.943 | 0.00737 | 0.0056 | 0.953 | 0.778 | 0.956 | 0.795 | 0.719 | 0.83 | 0.534 | 0.0661 | 0.0132 | 90.6 ± 2.2% | 104 ± 0.35% | 93.2 ± 1.9% | 88 ± 1.8% | 62.5 ± 2.2% | 0.919 ± 0.12% | 92.1 ± 4.3% | 95.1 ± 3.5% | 92.2 ± 3.1% | 91.6 ± 2.6% | 71.9 ± 2.9% | 0.885 ± 0.12% |
| Nc1nc2[nH]cc(CCc3ccc(C(=O)N[C@@H](CCC(=O)O)C(=O)O)cc3)c2c(=O)[nH]1 [Pemetrexed disodium] | 1.05 | 0.979 | 1.03 | 0.984 | 1.02 | 0.0167 | 0.00471 | 0.00243 | 0.000722 | 1.25 | 1.15 | 1.17 | 1.17 | 1.09 | 0.126 | 0.0307 | 0.0251 | 0.0247 | 102 ± 2.4% | 92.3 ± 6.5% | 102 ± 1.6% | 106 ± 1.4% | 104.4 ± 0.47% | 88.6 ± 7.4% | 107 ± 2.3% | 101 ± 4.2% | 107 ± 5.4% | 93.8 ± 4.3% | 94.1 ± 6.1% | 81.27 ± 0.71% |
| CC(C)C[C@H](NC(=O)CNC(=O)c1cc(Cl)ccc1Cl)B1OC(=O)C(CC(=O)O)(CC(=O)O)O1 [MLN9708] | 1.05 | 1.02 | 1.01 | 1.02 | 1 | 0.0169 | 0.00139 | 0.00101 | 0.000797 | 1.35 | 1.13 | 1.2 | 1.17 | 1 | 0.392 | 0.0117 | 0.00236 | 0.000667 | 99.131 ± 0.04% | 98.8 ± 0.59% | 102 ± 2.2% | 4.63 ± 0.36% | 1.63 ± 0.029% | 0.886 ± 0.074% | 103 ± 2.1% | 104 ± 2.3% | 107 ± 4.3% | 21.9 ± 4.2% | 3.28 ± 0.3% | 2.38 ± 0.081% |
| Nc1ccn([C@@H]2O[C@H](CO)[C@@H](O)C2(F)F)c(=O)n1 [Gemcitabine Hydrochloride] | 1.06 | 1.01 | 1.02 | 0.0319 | 0.014 | 0.00861 | 0.007 | 0.00362 | 0.00263 | 1.07 | 0.96 | 0.953 | 0.0927 | 0.0285 | 0.023 | 0.0148 | 0.008 | 0.00219 | 103 ± 1.8% | 95.2 ± 9.7% | 51.9 ± 0.63% | 50 ± 2.1% | 41.866 ± 0.0075% | 28.5 ± 1.5% | 108 ± 11% | 93 ± 1.5% | 52.67 ± 0.069% | 52.6 ± 0.69% | 44.7 ± 3.6% | 32.9 ± 0.75% |
| CCc1cccc(CC)c1NC(=O)N1Cc2[nH]nc(NC(=O)c3ccc(N4CCN(C)CC4)cc3)c2C1 | 0.986 | 1.13 | 1.17 | 0.98 | 0.853 | 0.0445 | 0.00761 | 0.00148 | 0.000776 | 1.02 | 0.947 | 1.01 | 0.767 | 0.524 | 0.292 | 0.0956 | 0.0612 | 0.00895 | 103 ± 1.6% | 101.9 ± 0.41% | 104.5 ± 0.47% | 103 ± 1.4% | 64.8 ± 1.1% | 17.8 ± 0.74% | 100 ± 7.8% | 86.5 ± 5.1% | 101 ± 3.2% | 91.7 ± 2.3% | 60.9 ± 2% | 30.4 ± 1.4% |
| COc1ccc(S(=O)(=O)N(C(C)=O)c2ccccc2/C=C/c2cc[n+]([O-])cc2)cc1 [HMN-214] | 1.14 | 1.08 | 1.09 | 1.17 | 1.09 | 0.985 | 0.0414 | 0.0021 | 0.00207 | 1.16 | 1.09 | 1.35 | 1.08 | 1.01 | 1.02 | 0.0913 | 0.0251 | 0.03 | 98.78 ± 0.21% | 99.62 ± 0.55% | 100.9 ± 0.31% | 97.91 ± 0.21% | 45.5 ± 1.1% | 39.5 ± 0.96% | 112 ± 4% | 110 ± 1.5% | 96.8 ± 5.4% | 92.7 ± 1.4% | 40.4 ± 1.6% | 37 ± 2.7% |
| O=C(Cc1ccc(-c2ccc(OCCN3CCOCC3)cc2)cn1)NCc1ccccc1 [KX2-391] | 1.23 | 1.1 | 1.12 | 1.01 | 0.0594 | 0.00501 | 0.00135 | 0.00316 | 0.00418 | 1.18 | 0.965 | 1.06 | 0.813 | 0.205 | 0.0932 | 0.069 | 0.0401 | 0.0343 | 101 ± 3.5% | 96.4 ± 5.7% | 58.7 ± 3.5% | 50.8 ± 1% | 33.05 ± 0.28% | 34.1 ± 1.5% | 90.4 ± 1.4% | 98.1 ± 14% | 70 ± 2.2% | 47.7 ± 0.7% | 35.2 ± 2.1% | 37.3 ± 0.46% |
| CO[C@H]1C[C@@H]2CC[C@@H](C)[C@@](O)(O2)C(=O)C(=O)N2CCCC[C@H]2C(=O)O[C@H]([C@H](C)C[C@@H]2CC[C@@H](OP(C)(C)=O)[C@H](OC)C2)CC(=O)[C@H](C)/C=C(\C)[C@@H](O)[C@@H](OC)C(=O)[C@H](C)C[C@H](C)/C=C/C=C/C=C/1C [Deforolimus(MK-8669)] | 0.988 | 0.964 | 0.973 | 0.932 | 0.899 | 0.802 | 0.693 | 0.381 | 0.459 | 0.609 | 0.552 | 0.523 | 0.466 | 0.466 | 0.493 | 0.373 | 0.281 | 0.284 | 64.9 ± 4.2% | 64.215 ± 0.057% | 68.4 ± 2.7% | 69.1 ± 1.9% | 64.44 ± 0.59% | 67.4 ± 1.6% | 47.2 ± 1.4% | 56.5 ± 2.7% | 56.6 ± 1.4% | 51.2 ± 2% | 47.9 ± 3% | 48.8 ± 5.1% |
| CC(C)(C)c1cnc(CSc2cnc(NC(=O)C3CCNCC3)s2)o1 | 1.14 | 1.05 | 1.1 | 1.12 | 1.07 | 0.771 | 0.00698 | 0.00188 | 0.00107 | 1.06 | 1.14 | 1.02 | 1.07 | 0.654 | 0.112 | 0.00431 | 0.00292 | 0.00164 | 99.3 ± 1.4% | 96.57 ± 0.27% | 96.563 ± 0.042% | 49.5 ± 4.3% | 21.27 ± 0.21% | 16.3 ± 1.4% | 102.3 ± 0.73% | 107.6 ± 0.94% | 102 ± 3.9% | 51.1 ± 3.1% | 15.7 ± 0.57% | 8.84 ± 0.46% |
| CNC(=O)c1cc(Oc2ccc(NC(=O)Nc3cc(C(C)(C)C)nn3-c3ccc4ncccc4c3)c(F)c2)ccn1 [DCC-2036] | 1.18 | 1.26 | 1.25 | 1.24 | 1.32 | 0.354 | 1.05 | 0.00706 | 0.00896 | 1.65 | 1.68 | 1.69 | 1.63 | 1.59 | 1.62 | 1.43 | 0.931 | 0.0177 | 96.92 ± 0.83% | 98.2 ± 4.1% | 90.7 ± 1.8% | 69.51 ± 0.61% | 59.4 ± 0.26% | 9.01 ± 0.21% | 100 ± 5.8% | 97.14 ± 0.62% | 92.2 ± 4.6% | 87 ± 1.4% | 87.2 ± 2% | 9.801 ± 0.031% |
| CCC[C@H](NC(=O)/C(C#N)=C/c1cccc(Br)n1)c1ccccc1 [WP1130] | 1.14 | 0.962 | 1.13 | 1.04 | 1.02 | 1.14 | 0.0225 | 0.00218 | 0.00472 | 1.37 | 1.16 | 1.59 | 1.27 | 1.4 | 1.62 | 1.11 | 0.0118 | 0.0115 | 99.84 ± 0.79% | 111 ± 2.8% | 109 ± 2.5% | 105 ± 1.6% | 65.6 ± 11% | 11.4 ± 1.6% | 104 ± 6% | 98.3 ± 8.2% | 99 ± 1.9% | 100 ± 3.1% | 42.6 ± 3.9% | 12.9 ± 0.62% |
| O=C(/C=C/c1ccc(CN(CCO)CCc2c[nH]c3ccccc23)cc1)NO [LAQ824] | 1.01 | 0.942 | 0.887 | 0.67 | 0.0147 | 0.00199 | 0.000488 | 0.000621 | 0.000364 | 1.04 | 0.934 | 0.921 | 0.89 | 0.628 | 0.173 | 0.0545 | 0.00134 | 0.000846 | 94.4 ± 1.2% | 94.1 ± 1.4% | 67.9 ± 1.9% | 21.1 ± 0.62% | 2.61 ± 0.065% | 1.459 ± 0.0077% | 92.2 ± 3.3% | 87.2 ± 0.88% | 83.3 ± 3.2% | 54.8 ± 0.8% | 31.7 ± 1.1% | 16.2 ± 0.46% |
| NC(=O)Nc1cc(-c2cccc(F)c2)sc1C(=O)N[C@H]1CCCNC1 [AZD7762] | 0.976 | 0.981 | 1.07 | 1.08 | 0.341 | 0.00441 | 0.00215 | 0.000402 | 0.00128 | 0.981 | 0.92 | 0.935 | 0.731 | 0.244 | 0.0116 | 0.00396 | 0.000482 | 0.00108 | 99 ± 1.1% | 98.96 ± 0.94% | 98.3 ± 0.4% | 83.6 ± 0.97% | 22.27 ± 0.029% | 3.24 ± 0.41% | 102 ± 4.3% | 108 ± 1.8% | 88.76 ± 0.17% | 32.13 ± 0.32% | 17.1 ± 0.87% | 6.55 ± 0.31% |
